Laboratory results: patent US20130072385A1, “METHODS FOR DELAYING BUD BREAK BY APPLYING ABA ANALOGS” (priority 2011, published 2013)

Columns and labels:
Concord grape vines = experiment: Spring spray of eco-dormant field grown Concord grape vines, bud break; type: in vivo, Concord grapevines; settings: sprayed 2 times in spring
Method: A study was conducted to evaluate the effect of spraying eco-dormant Concord grape vines with ABA or ABA analog plus surfactants on bud break. Mature field grown Concord grape vines were sprayed to runoff 2 times in the spring after pruning and before bud swell. Three replicates of 3 vines each were treated with each treatment solution. Treatments were arranged in a randomized complete block design down a single vineyard row, Bud break was monitored by counting the number of broken buds of the distal 5 buds on 4 proximal canes on the middle vine of each 3 vine replicate. Bud break was only very slightly delayed by any of the treatments compared to the water sprayed control (Table 1).

PF-11 nectarine trees = experiment: Fall foliar spray of PF-11 nectarine trees, fruit number per tree the following spring; type: in vivo; settings: 10,000 ppm in 0.1% Brij 98, fall foliar application; June 10
Method: A study was conducted to determine the effect of spraying nectarine trees with ABA or ABA analogs in the fall on bud break the following spring. Mature PF-11 nectarine trees were sprayed to drip with surfactant alone or surfactant and ABA or ABA analog on Oct. 19, 2009. Trees were sprayed with approximately 500 ml (20.5 grams ABA analog/acre) applied to each of 6 trees per treatment arranged in a randomized complete block design. The following spring bud break on pre-selected branches was monitored.

(S)-5-(1-hydroxy-2,6,6)-trimethyl-4-oxo-2-cyclohexen-1-yl)-3-methyl-(2 Z,4E)-pentadienoic acid [ABA]
Average percent broken buds (Concord grape vines; April 24, 1,000 ppm ABA plus 0.5% Brij 98): 8%
Average percent broken buds (Concord grape vines; April 24, 1,000 ppm plus 0.5% Pentrabark): 2%
Average percent broken buds (Concord grape vines; April 24, 10,000 ppm ABA plus 0.5% Brij 98): 5%
Average percent broken buds (Concord grape vines; April 30, 1,000 ppm ABA plus 0.5% Brij 98): 13%
Average percent broken buds (Concord grape vines; April 30, 1,000 ppm plus 0.5% Pentrabark): 13%
Average percent broken buds (Concord grape vines; April 30, 10,000 ppm ABA plus 0.5% Brij 98): 18%
Average number of fruit per tree (PF-11 nectarine trees): 55
